# Entries after “also recorded” stand apart in the source; their conditions may differ. Read-outs that look alike come from different tables or passages of the source.
# Experiments:
# male CF-1 mice [1] = assay: Convulsions in mice, 5 min inhalation exposure to test compound in air; format: in vivo, mouse (male CF-1); conditions: for ADDITIONAL REMARKS: type of convulsions and other effects: Table 1; for MOUSE CONVULSANT CONC., VOL. %: inhalation, 5 min
# Description: (§1) If anesthesia occurred, the median anesthetic concentration (AC50) was established. Another thirty mice were treated similarly to establish the median lethal concentration (LC50). The concentrations were calculated from the volume used and density of the test compound and the volume of air (6.3 l) in the test jar using the ideal gas law. The results for the convulsant ethers are given in Table 1; Tables 2 and 3 contain the results for related nonconvulsant ethers, most of which are good anesthetic agents.
# male CF-1 mice [2] = assay: Lethality in mice (median lethal concentration LC50); format: in vivo, mouse (male CF-1); conditions: for MOUSE LC50: inhalation, 5 min
# Description: as §1
# Stability to heat = format: physicochemical
# Description: which can be treated with about a 0.4 molar equivalent of bromine trifluoride at -5° C to give the ether V (See Examples 8 and 9).
# dogs = assay: Convulsions / other effects in dogs; format: in vivo, dog
# male CF-1 mice [3] = assay: Anesthesia in mice (median anesthetic concentration AC50); format: in vivo, mouse (male CF-1); conditions: inhalation, 5 min
# Description: as §1
# male CF-1 mice [4] = conditions: footnote 5 (Krantz et al.); cited from earlier work
# male CF-1 mice [5] = conditions: footnote 5 (Krantz et al.); cited from earlier work; remark: listed apart in the source
# [6] = footnote 3 (Aldrich and Sheppard); cited from earlier work
# [7] = system: flurothyl induced convulsions; conditions: footnote 5 (Krantz et al.); cited from earlier work
SMILES,MOUSE LC50 (male CF-1 mice [2]) [VOL. %],MOUSE AC50 (median anesthetic concentration) (male CF-1 mice [3]) [VOL. %],other results
"FC(F)OCC(F)(F)C(F)F [I, Difluoromethyl 2,2,3,3-tetrafluoropropyl ether]",3.2,–,"ADDITIONAL REMARKS: type of convulsions and other effects (male CF-1 mice [1]): CLONIC CONVULSIONS; MOUSE CONVULSANT CONC., VOL. % (male CF-1 mice [1]): 1.0 VOL. %; stability to heat compared with V (Stability to heat): more stable than V to heat"
"FC(F)OCC(F)(F)C(F)(F)F [II, Difluoromethyl 2,2,3,3,3-pentafluoropropyl ether]",> 4.2,–,"ADDITIONAL REMARKS: type of convulsions and other effects (male CF-1 mice [1]): CLONIC AND TONIC CONVULSIONS; also recorded: CATALEPSY; MOUSE CONVULSANT CONC., VOL. % (male CF-1 mice [1]): 1.4 VOL. %; stability to heat compared with V (Stability to heat): more stable than V to heat"
"FC(F)OC(F)(F)C(F)C(F)(F)F (stereo not shown) [III, Difluoromethyl 1,1,2,3,3,3-hexafluoropropyl ether]",> 12,–,"MOUSE CONVULSANT CONC., VOL. % (male CF-1 mice [1]): 2.0 VOL. %; stability to heat compared with V (Stability to heat): more stable than V to heat"
"FC(F)OC(F)(C(F)F)C(F)F [IV, Difluromethyl 1,1,2,3,3-pentafluoro-2-propyl ether]",5.3,–,"ADDITIONAL REMARKS: convulsions in dogs (dogs): OPI[…]. IN DOGS; ADDITIONAL REMARKS: type of convulsions and other effects (male CF-1 mice [1]): C[…] SEDATION; MOUSE CONVULSANT CONC., VOL. % (male CF-1 mice [1]): 1.2 VOL. %; stability to heat compared with V (Stability to heat): more stable than V to heat"
FC(F)OC(F)C(F)(F)C(F)(F)F (stereo not shown) [IX],> 9.9,4.3,–
"FCOCC(F)(F)C(F)(F)F [V, Fluoromethyl 2,2,3,3,3-pentafluoropropyl ether]",> 3.0,–,"ADDITIONAL REMARKS: type of convulsions and other effects (male CF-1 mice [1]): METRAZOLE-LIKE CONVULSIONS; MOUSE CONVULSANT CONC., VOL. % (male CF-1 mice [1]): 1.5 VOL. %; stability to heat in the presence of an alkaline material (Stability to heat; e.g., soda lime): stable to 70 °C; stability to heat (Stability to heat; upon distillation at 760 torr): unstable to heat and decomposed with the formation of hydrogen fluoride"
"FC(F)(F)COCC(F)(F)F [VII, fluorothyl]",–,–,"MOUSE CONVULSANT CONC., VOL. % (male CF-1 mice [4]): ≤ 0.25 VOL. %; ADDITIONAL REMARKS: type of convulsions and other effects (male CF-1 mice [1]): CLONIC AND TONIC CONVULSIONS; ADDITIONAL REMARKS: time of convulsions (male CF-1 mice [1]; clonic and tonic convulsions): 30 s; MOUSE LC50 (male CF-1 mice [5]): < 0.50 VOL. %"
FC(F)C(F)(F)COC(F)(F)F [VI],≤ 0.5,–,"ADDITIONAL REMARKS: convulsions and death [6]: VIOLENT C[…] DEATH; ADDITIONAL REMARKS: time of convulsions and death [6]: 30 to 120 s; MOUSE CONVULSANT CONC., VOL. % (male CF-1 mice [1]): ≤ 0.5 VOL. %"
FCOC(F)(F)C(F)C(F)(F)F (stereo not shown) [XIII],6.4,2.1,–
FC(F)OC(C(F)F)C(F)F [XII],3.8,0.64,–
FCOC(F)(C(F)F)C(F)(F)F (stereo not shown) [XIV],9.0,2.5,ADDITIONAL REMARKS: convulsions in dogs (dogs): NON[…] DOGS
"COCC(F)(F)C(F)(F)F [XIX, methyl 2,2,3,3,3-pentafluoropropyl ether]",16,11,–
FC(F)OC(C(F)F)C(F)(F)F (stereo not shown) [XI],4.9,0.84,–
"COC(F)(F)C(F)C(F)(F)F (stereo not shown) [XVIII, methyl 1,1,2,3,3,3-hexafluoropropyl ether]",> 8.0,3.9,–
COC(F)(F)C(F)(F)C(F)(F)F [XVII],50,–,ADDITIONAL REMARKS: cause of death (male CF-1 mice [2]; mouse): DEATH DUE TO ANOXIA
FCOC(C(F)F)C(F)(F)F (stereo not shown) [XVI],5.1,0.84,–
FCOC(C(F)(F)F)C(F)(F)F [XV],8.5,1.4,ADDITIONAL REMARKS: convulsions in dogs (dogs): NON[…] DOGS
COC(C(F)F)C(F)F [XXIII],> 7.8,1.4,–
COC(C(F)F)C(F)(F)F (stereo not shown) [XXII],6.9,1.5,–
COC(C(F)(F)F)C(F)(F)F [XXI],9.0,2.2,ADDITIONAL REMARKS: convulsions in dogs (dogs): NON[…] DOGS; antagonist to flurothyl (induced convulsions) [7]: ANTAGONIST
COCC(F)(F)C(F)F [XX],7.0,2.5,–
FC(F)OC(C(F)(F)F)C(F)(F)F [X],12,2.5,ADDITIONAL REMARKS: convulsions in dogs (dogs): NON[…] DOGS
